# Where two headings read alike, the source gives them in different places.
# Tested on: A. baumannii
# Assay: microbe, parasite or virus in culture
# Details: Acinetobacter baumannii, 100%
# How it was run: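 Values come from CLSI-guided (M07, M100) broth microdilution in CAMHB. Endpoint: lowest concentration halting growth, judged by naked eye or by OD600 plateau.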
structure (smiles),measurement,setting,value
"C[C@@H](O)[C@H]1C(=O)N2C(C(=O)O)=C(S[C@@H]3CN[C@H](C(=O)N(C)C)C3)[C@H](C)[C@H]12 [meropenem, reference compound]",MIC,"read-out: MIC 100%, ROB08705, Study LGC295147",32 µg/mL
same,MIC,"read-out: MIC 100%, ROB08705, Study LGC296813",32 µg/mL
same,MIC,"read-out: MIC 100%, ROB08705, Study LGC299544",32 µg/mL
same,MIC,"read-out: MIC 100%, ROB08705, Study LGC301026",64 µg/mL
same,MIC,"read-out: MIC 100%, ROB08705, Study LGC308175",32 µg/mL
same,MIC,"read-out: MIC 100%, ROB08705, Study ROC003",32 µg/mL
same,MIC,"read-out: MIC 100%, ROB08705, Study ROC004",64 µg/mL
same,MIC,"read-out: MIC 100%, ROB08705, Study ROC005",64 µg/mL
same,MIC,"read-out: MIC 100%, ROB08705, Study ROC006",64 µg/mL
same,MIC,"read-out: MIC 100%, ROB08705, Study ROC007",32 µg/mL
same,MIC,"read-out: MIC 100%, ROB08705, Study ROC008",> 64 µg/mL
same,MIC,"read-out: MIC 100%, ROB08705, Study ROC009",32 µg/mL
same,MIC,"read-out: MIC 100%, ROB08705, Study ROC010",64 µg/mL
same,MIC,"read-out: MIC 100%, ROB08705, Study ROC012",32 µg/mL
same,MIC,"read-out: MIC 100%, ROB08705, Study ROC013",32 µg/mL
same,MIC,"read-out: MIC 100%, ROB08706, Study LGC277937",64 µg/mL
same,MIC,"read-out: MIC 100%, ROB08706, Study LGC279800",> 64 µg/mL
same,MIC,"read-out: MIC 100%, ROB08706, Study LGC281440",32 µg/mL
same,MIC,"read-out: MIC 100%, ROB08706, Study LGC282160",64 µg/mL
same,MIC,"read-out: MIC 100%, ROB08706, Study LGC282623",64 µg/mL
same,MIC,"read-out: MIC 100%, ROB08706, Study LGC283932",64 µg/mL
same,MIC,"read-out: MIC 100%, ROB08706, Study LGC284200",32 µg/mL
same,MIC,"read-out: MIC 100%, ROB08706, Study LGC284879",64 µg/mL
same,MIC,"read-out: MIC 100%, ROB08706, Study LGC285582",64 µg/mL
same,MIC,"read-out: MIC 100%, ROB08706, Study LGC286210",64 µg/mL
same,MIC,"read-out: MIC 100%, ROB08706, Study LGC293598",64 µg/mL
same,MIC,"read-out: MIC 100%, ROB08706, Study LGC294355",64 µg/mL
same,MIC,"read-out: MIC 100%, ROB08706, Study LGC295147",64 µg/mL
same,MIC,"read-out: MIC 100%, ROB08706, Study LGC296813",64 µg/mL
same,MIC,"read-out: MIC 100%, ROB08706, Study LGC299544",64 µg/mL
same,MIC,"read-out: MIC 100%, ROB08706, Study LGC301026",64 µg/mL
same,MIC,"read-out: MIC 100%, ROB08706, Study LGC308175",64 µg/mL
same,MIC,"read-out: MIC 100%, ROB08706, Study ROC004",64 µg/mL
same,MIC,"read-out: MIC 100%, ROB08706, Study ROC005",64 µg/mL
same,MIC,"read-out: MIC 100%, ROB08706, Study ROC006",> 64 µg/mL
same,MIC,"read-out: MIC 100%, ROB08706, Study ROC007",64 µg/mL
same,MIC,"read-out: MIC 100%, ROB08706, Study ROC008",64 µg/mL
same,MIC,"read-out: MIC 100%, ROB08706, Study ROC009",64 µg/mL
same,MIC,"read-out: MIC 100%, ROB08706, Study ROC010",32 µg/mL
same,MIC,"read-out: MIC 100%, ROB08706, Study ROC012",64 µg/mL
same,MIC,"read-out: MIC 100%, ROB08706, Study ROC013",64 µg/mL
same,MIC,"read-out: MIC 100%, ROB08707, Study LGC277937",32 µg/mL
same,MIC,"read-out: MIC 100%, ROB08707, Study LGC279800",32 µg/mL
same,MIC,"read-out: MIC 100%, ROB08707, Study LGC281440",32 µg/mL
same,MIC,"read-out: MIC 100%, ROB08707, Study LGC282160",32 µg/mL
same,MIC,"read-out: MIC 100%, ROB08707, Study LGC282623",64 µg/mL
same,MIC,"read-out: MIC 100%, ROB08707, Study LGC283932",64 µg/mL
same,MIC,"read-out: MIC 100%, ROB08707, Study LGC284200",32 µg/mL
same,MIC,"read-out: MIC 100%, ROB08707, Study LGC284879",64 µg/mL
same,MIC,"read-out: MIC 100%, ROB08707, Study LGC285582",32 µg/mL
same,MIC,"read-out: MIC 100%, ROB08707, Study LGC286210",32 µg/mL
same,MIC,"read-out: MIC 100%, ROB08707, Study LGC293598",32 µg/mL
same,MIC,"read-out: MIC 100%, ROB08707, Study LGC294355",32 µg/mL
same,MIC,"read-out: MIC 100%, ROB08707, Study LGC295147",64 µg/mL
same,MIC,"read-out: MIC 100%, ROB08707, Study LGC296813",32 µg/mL
same,MIC,"read-out: MIC 100%, ROB08707, Study LGC299544",64 µg/mL
same,MIC,"read-out: MIC 100%, ROB08707, Study LGC301026",32 µg/mL
same,MIC,"read-out: MIC 100%, ROB08707, Study LGC308175",32 µg/mL
same,MIC,"read-out: MIC 100%, ROB08707, Study ROC004",32 µg/mL
same,MIC,"read-out: MIC 100%, ROB08707, Study ROC005",32 µg/mL
same,MIC,"read-out: MIC 100%, ROB08707, Study ROC006",64 µg/mL
same,MIC,"read-out: MIC 100%, ROB08707, Study ROC007",64 µg/mL
same,MIC,"read-out: MIC 100%, ROB08707, Study ROC008",32 µg/mL
same,MIC,"read-out: MIC 100%, ROB08707, Study ROC009",32 µg/mL
same,MIC,"read-out: MIC 100%, ROB08707, Study ROC010",32 µg/mL
same,MIC,"read-out: MIC 100%, ROB08707, Study ROC012",32 µg/mL
same,MIC,"read-out: MIC 100%, ROB08707, Study ROC013",32 µg/mL
same,MIC,"read-out: MIC 100%, ROB08708, Study LGC277937",> 64 µg/mL
same,MIC,"read-out: MIC 100%, ROB08708, Study LGC279800",32 µg/mL
same,MIC,"read-out: MIC 100%, ROB08708, Study LGC281440",16 µg/mL
same,MIC,"read-out: MIC 100%, ROB08708, Study LGC282160",16 µg/mL
same,MIC,"read-out: MIC 100%, ROB08708, Study LGC282623",32 µg/mL
same,MIC,"read-out: MIC 100%, ROB08708, Study LGC283932",32 µg/mL
same,MIC,"read-out: MIC 100%, ROB08708, Study LGC284200",32 µg/mL
same,MIC,"read-out: MIC 100%, ROB08708, Study LGC284879",32 µg/mL
same,MIC,"read-out: MIC 100%, ROB08708, Study LGC285582",32 µg/mL
same,MIC,"read-out: MIC 100%, ROB08708, Study LGC286210",16 µg/mL
same,MIC,"read-out: MIC 100%, ROB08708, Study LGC293598",16 µg/mL
same,MIC,"read-out: MIC 100%, ROB08708, Study LGC294355",16 µg/mL
same,MIC,"read-out: MIC 100%, ROB08708, Study LGC295147",32 µg/mL
same,MIC,"read-out: MIC 100%, ROB08708, Study LGC296813",32 µg/mL
same,MIC,"read-out: MIC 100%, ROB08708, Study LGC299544",32 µg/mL
same,MIC,"read-out: MIC 100%, ROB08708, Study LGC301026",32 µg/mL
same,MIC,"read-out: MIC 100%, ROB08708, Study LGC308175",64 µg/mL
same,MIC,"read-out: MIC 100%, ROB08708, Study ROC004",32 µg/mL
same,MIC,"read-out: MIC 100%, ROB08708, Study ROC005",16 µg/mL

# Source: paper PMC10794144, “A novel antibiotic class targeting the lipopolysaccharide transporter” (Nature, 2024)
